Conditions: 283.15 K, Liquid, Vibrating tube method

CCCCC(=O)OCC(COC(=O)CCCC)(COC(=O)CCCC)COC(=O)CCCC [pentaerythritol tetrapentanoate]
Conditions | mass density [kg/m3]
27222 kPa | 1042.2
27265 kPa | 1042.3
27300 kPa | 1042.3
27336 kPa | 1042.4
27379 kPa | 1042.4
27415 kPa | 1042.3
27450 kPa | 1042.4
27493 kPa | 1042.5
27528 kPa | 1042.4
27564 kPa | 1042.3
27608 kPa | 1042.5
27645 kPa | 1042.6
27681 kPa | 1042.5
27718 kPa | 1042.5
27762 kPa | 1042.5
27798 kPa | 1042.5
27842 kPa | 1042.6
27879 kPa | 1042.6
27916 kPa | 1042.6
27961 kPa | 1042.6
27998 kPa | 1042.8
28035 kPa | 1042.7
28074 kPa | 1042.8
28121 kPa | 1042.7
28158 kPa | 1042.7
28196 kPa | 1042.8
28241 kPa | 1042.8
28279 kPa | 1042.8
28316 kPa | 1042.8
28354 kPa | 1042.8
28400 kPa | 1042.8
28438 kPa | 1043
28477 kPa | 1043
28524 kPa | 1043
28563 kPa | 1043
28610 kPa | 1043
28652 kPa | 1043
28691 kPa | 1043.1
28730 kPa | 1043.1
28770 kPa | 1043
28816 kPa | 1043.1
28856 kPa | 1043.1
28896 kPa | 1043.1
28944 kPa | 1043.2
28984 kPa | 1043.2
29024 kPa | 1043.1
29072 kPa | 1043.3
29112 kPa | 1043.2
29153 kPa | 1043.3
29194 kPa | 1043.3
29244 kPa | 1043.3
29285 kPa | 1043.3
29333 kPa | 1043.4
29375 kPa | 1043.4
29416 kPa | 1043.4
29458 kPa | 1043.4
29508 kPa | 1043.4
29549 kPa | 1043.5
29592 kPa | 1043.4
29642 kPa | 1043.4
29685 kPa | 1043.6
29737 kPa | 1043.6
29782 kPa | 1043.6
29825 kPa | 1043.6
29869 kPa | 1043.7
29926 kPa | 1043.7
29972 kPa | 1043.7
30019 kPa | 1043.7
30074 kPa | 1043.7
30106 kPa | 1043.7
30144 kPa | 1043.9
30175 kPa | 1043.8
30205 kPa | 1043.8
30243 kPa | 1043.8
30275 kPa | 1043.9
30307 kPa | 1043.9
30340 kPa | 1044
30379 kPa | 1043.8
30413 kPa | 1043.9
30453 kPa | 1043.9
30485 kPa | 1044
30517 kPa | 1044
30549 kPa | 1044
30588 kPa | 1043.9
30621 kPa | 1044
30653 kPa | 1044.2
30692 kPa | 1044
30724 kPa | 1044.1
30757 kPa | 1044.1
30795 kPa | 1044.1
30828 kPa | 1044.1
30860 kPa | 1044.2
30899 kPa | 1044.1
30932 kPa | 1044.2
30965 kPa | 1044.2
31004 kPa | 1044.3
31038 kPa | 1044.2
31071 kPa | 1044.3
31110 kPa | 1044.2
31144 kPa | 1044.3
31178 kPa | 1044.4
31218 kPa | 1044.3
31252 kPa | 1044.4
31285 kPa | 1044.5
31325 kPa | 1044.3
31359 kPa | 1044.5
31393 kPa | 1044.4
31427 kPa | 1044.5
31468 kPa | 1044.5
31503 kPa | 1044.5
31544 kPa | 1044.5
31578 kPa | 1044.5
31613 kPa | 1044.6
31650 kPa | 1044.6
31685 kPa | 1044.5
31726 kPa | 1044.7
31762 kPa | 1044.6
31797 kPa | 1044.7
31839 kPa | 1044.7
31874 kPa | 1044.7
31909 kPa | 1044.7
31951 kPa | 1044.8
31987 kPa | 1044.8
32023 kPa | 1044.7
32066 kPa | 1044.8
32103 kPa | 1044.7
32141 kPa | 1044.8
32177 kPa | 1044.8
32214 kPa | 1044.9
32257 kPa | 1044.9
32294 kPa | 1044.9
32337 kPa | 1044.8
32373 kPa | 1045.1
32410 kPa | 1044.9
32447 kPa | 1044.9
32491 kPa | 1045
32528 kPa | 1045
32572 kPa | 1045
32609 kPa | 1045.1
32647 kPa | 1045.2
32691 kPa | 1045.2
32728 kPa | 1045.1
32766 kPa | 1045.2
32804 kPa | 1045.1
32850 kPa | 1045.1
32887 kPa | 1045.2
32925 kPa | 1045.2
32971 kPa | 1045.2
33008 kPa | 1045.2
33055 kPa | 1045.3
33093 kPa | 1045.2
33133 kPa | 1045.3
33172 kPa | 1045.3
33218 kPa | 1045.3
33258 kPa | 1045.4
33297 kPa | 1045.4
33344 kPa | 1045.4
33383 kPa | 1045.5
33430 kPa | 1045.5
33471 kPa | 1045.4

— the NIST ThermoML archive (doi:10.1021/je060271a)
